Results taken from patent US9259482B2, “Conjugates of polymers having a therapeutically active agent and an angiogenesis targeting moiety attached thereto and uses thereof in the treatment of angiogenesis related diseases” (Ramot at Tel-Aviv University Ltd., priority 2008, dated 2016).
Like-named read-outs stand apart in the source and are kept apart here. Non-standard residues stand in square brackets, D forms with d.

Tests used:
HUVEC [1] = experiment: cells; type: cell-based, human; conditions: for IC50: HUVEC
Description: (§1) The anti-angiogenesis and anti-proliferative activity of the conjugates described herein was evaluated by the effect of the conjugates on the proliferation of HUVEC, U87 and PANC02 cells.
(§2) HUVEC were plated onto 24-well plate (1×10^4 cells/well) in endothelial cell basal medium 2 (EBM-2; Cambrex, USA) supplemented with 5% fetal bovine serum (FBS). Following 24 hours of incubation (37° C.; 5% CO2) medium was replaced with Endothelial cell growth medium-2 (EGM-2; Cambrex, USA). U87 and PANC02 cells were plated onto 96 well plate (2×10^3 cells/well) in DMEM supplemented with 5% FBS and incubated for 24 hours (37° C.; 5% CO2). Following 24 hours of incubation the medium was replaced with DMEM containing 10% FBS. Cells were challenged with the tested compounds at serial concentrations for 72 hours. After incubation the number of HUVEC were counted by Coulter Counter and U87, and PANC02 cells were counted by XTT respectively.

HUVEC [2] = experiment: Migration assay of HUVEC towards VEGF; type: cell-based, human; conditions: equivalent concentrations of 100 nM PTX, conjugate with 5 mol % E-[c(RGDfk)2], 2.6 mol % PTX, FIG. 14
Description: The anti-angiogenesis activity of the conjugates was evaluated by examining the effect of the conjugates on the ability of HUVEC to migrate toward the Vascular Endothelial Growth Factor (VEGF).
Cell migration assay was performed using modified 8 μm Boyden chambers Transwells® (Costar Inc., USA) coated with 10 μg/ml fibronectin HUVEC (15×10^4 cells/100 μl) were challenged with the tested compounds that were added to the upper chamber of the transwells for 2 hours. Following incubation, cells were allowed to migrate to the underside of the chamber for 4 hours in the presence or absence of VEGF (20 ng/ml) in the lower chamber. Cells were then fixed and stained (Hema 3 Stain System; Fisher Diagnostics, USA). The stained migrated cells were imaged using Nikon TE2000E inverted microscope integrated with Nikon DS5 cooled CCD camera by 10× objective, brightfield illumination. Migrated cells from the captured images per membrane were counted using NIH image software. Migration was normalized to the percent of migration toward VEGF of HUVEC which were not incubated with any compound. The extent of migration is inversely proportional to the anti-angiogenesis activity of the compounds.

HUVEC [3] = experiment: Endothelial cell adhesion assay on fibrinogen coated plates; type: cell-based, human; conditions: for effect of free peptides on HUVEC adhesion: free peptide at 50 μM; for inhibition of HUVEC adhesion to fibrinogen: with a similar amount of PTX
Description: The ability of E-[c(RGDfk)2] and E-c(RGDfk) moieties (SEQ ID NOs: 2 and 41) in the conjugates to inhibit endothelial attachment to cellular matrix after conjugation, was assessed using an adhesion assay. Flat bottom 96-well culture plates (Nunc, Denmark) were coated with 0.5 μg/well fibrinogen overnight at 4° C. After washing three times with Phosphate buffered saline (PBS), the wells were blocked with 1% bovine serum albumin (BSA) for 1 hour at 37° C. and washed three times again with PBS. HUVEC were harvested in phosphate-buffered saline (137 mM NaCl, 2.7 mM KCl, 4.3 mM Na2HPO4, 1.4 mM KH2PO4, pH 7.3) with 2.5 mM EDTA and resuspended in EBM-2 serum-free media (Clonetics). HUVEC were incubated for 30 minutes, at room temperature, with the tested compounds. The treated HUVEC were plated at 5×10^4 cells per well and were allowed to attach for 1 hour at 37° C. After incubation, the unattached cells were removed by rinsing the wells with PBS. The attached cells were fixed with 3.7% formaldehyde, stained with 0.5% crystal violet and were imaged using Nikon TE2000E inverted microscope integrated with Nikon DS5 cooled CCD camera by 4× objective, brightfield technique. The number of attached cells was quantified with NIH ImageJ processing and analysis software. Non-specific binding was determined by adhesion of HUVEC cells, which were not incubated with any of the tested compounds, to BSA-coated plates.

[4] = system: U87 human glioblastoma cells; experiment: Cell proliferation assay, U87; type: cell-based
Description: as §1, §2

[5] = system: PANC02 murine pancreatic tumor cells; experiment: Cell proliferation assay, PANC02; type: cell-based
Description: as §1, §2

HUVEC [6] = experiment: Capillary-like tube formation assay; type: cell-based, human; conditions: equivalent concentrations of 10 nM (PTX) and 19 nM (E-[c(RGDfk)2]), conjugate with 5 mol % E-[c(RGDfk)2], 2.6 mol % PTX, FIG. 16B
Description: The anti-angiogenesis activity of the conjugates was evaluated by the effect of the conjugates on the ability of HUVEC cells to form capillary-like tube structures.
The surface of 24-well plates was coated with Matrigel matrix (50 μl/well) (BD Biosciences, USA) on ice and was then allowed to polymerize at 37° C. for 30 minutes. HUVEC (3×10^4 cells) were challenged with the tested compounds, and were seeded on coated plates in the presence of complete EGM-2 medium. After 8 hours of incubation (37° C.; 5% CO2), wells were imaged using Nikon TE2000E inverted microscope integrated with Nikon DS5 cooled CCD camera by 4× objective, brightfield technique. During the tube formation assay endothelial cells directionally migrate to align, branch and form polygonal networks (i.e. tube like structures). The extent of capillary-like tube structures is inversely proportional to the anti-angiogenesis activity of the compounds.

αvβ3 integrin receptor = biological target: T1, αvβ3 integrin receptor (Homo sapiens, UniProt P05106+P06756); experiment: αvβ3 interaction with fluorescently labeled conjugates in HUVEC; type: cell-based
T1 construct: endogenous in cells; host or cells: HUVEC
T1 sequence (P06756 31-889 limits assumed): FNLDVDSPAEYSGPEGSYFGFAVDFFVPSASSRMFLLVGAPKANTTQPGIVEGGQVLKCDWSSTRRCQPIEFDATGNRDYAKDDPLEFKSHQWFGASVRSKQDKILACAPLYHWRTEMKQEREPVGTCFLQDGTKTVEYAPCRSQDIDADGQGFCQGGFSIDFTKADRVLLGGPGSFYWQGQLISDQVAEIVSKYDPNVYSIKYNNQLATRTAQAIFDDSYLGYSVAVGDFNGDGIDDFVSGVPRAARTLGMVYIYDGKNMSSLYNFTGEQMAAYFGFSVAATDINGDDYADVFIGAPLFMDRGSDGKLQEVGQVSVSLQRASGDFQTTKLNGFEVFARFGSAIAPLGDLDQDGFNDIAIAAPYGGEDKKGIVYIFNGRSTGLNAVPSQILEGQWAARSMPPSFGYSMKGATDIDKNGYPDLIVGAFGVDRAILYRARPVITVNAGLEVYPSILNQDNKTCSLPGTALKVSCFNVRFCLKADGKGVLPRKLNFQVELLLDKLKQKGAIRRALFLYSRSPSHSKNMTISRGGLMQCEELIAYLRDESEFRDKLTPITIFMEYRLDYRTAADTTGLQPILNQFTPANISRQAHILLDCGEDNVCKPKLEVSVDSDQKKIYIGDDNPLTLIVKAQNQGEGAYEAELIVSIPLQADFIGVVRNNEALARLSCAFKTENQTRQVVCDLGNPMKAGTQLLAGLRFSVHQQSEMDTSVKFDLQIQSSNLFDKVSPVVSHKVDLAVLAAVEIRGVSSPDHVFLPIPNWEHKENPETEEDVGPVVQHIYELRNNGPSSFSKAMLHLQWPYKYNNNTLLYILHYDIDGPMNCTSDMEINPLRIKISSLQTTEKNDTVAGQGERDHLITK
T1 sequence (P06756 891-1048 limits assumed): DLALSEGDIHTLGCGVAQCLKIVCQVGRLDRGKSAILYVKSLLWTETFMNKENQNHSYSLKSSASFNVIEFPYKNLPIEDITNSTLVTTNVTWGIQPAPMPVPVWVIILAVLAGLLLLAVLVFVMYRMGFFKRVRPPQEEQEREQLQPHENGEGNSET
T1 sequence (P05106 27-788): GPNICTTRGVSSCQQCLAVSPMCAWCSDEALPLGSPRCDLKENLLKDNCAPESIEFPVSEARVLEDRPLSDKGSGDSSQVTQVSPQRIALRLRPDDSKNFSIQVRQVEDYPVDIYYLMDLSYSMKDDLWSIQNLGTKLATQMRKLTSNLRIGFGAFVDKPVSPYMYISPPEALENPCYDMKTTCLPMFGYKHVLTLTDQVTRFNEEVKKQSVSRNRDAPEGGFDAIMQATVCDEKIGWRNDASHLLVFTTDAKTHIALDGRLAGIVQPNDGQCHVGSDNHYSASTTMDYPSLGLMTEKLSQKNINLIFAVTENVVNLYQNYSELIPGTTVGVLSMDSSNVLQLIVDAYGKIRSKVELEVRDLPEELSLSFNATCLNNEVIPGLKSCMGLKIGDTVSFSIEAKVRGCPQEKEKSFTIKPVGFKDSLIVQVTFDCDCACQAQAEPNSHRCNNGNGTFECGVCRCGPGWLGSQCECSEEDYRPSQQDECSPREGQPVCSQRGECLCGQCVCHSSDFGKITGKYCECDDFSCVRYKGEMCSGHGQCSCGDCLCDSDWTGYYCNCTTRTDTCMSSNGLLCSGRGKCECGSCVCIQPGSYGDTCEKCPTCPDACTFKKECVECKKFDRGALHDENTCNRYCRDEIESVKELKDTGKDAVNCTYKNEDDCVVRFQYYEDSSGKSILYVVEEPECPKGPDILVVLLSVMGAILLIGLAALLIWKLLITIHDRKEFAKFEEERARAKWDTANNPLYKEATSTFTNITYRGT
Description: A fluorescence probe, Oregon Green-cadaverine (OG), was conjugated to PGA conjugates through the free carboxylic groups (see Example 5 for synthesis description), in order to study the cellular uptake and trafficking.
HUVEC were plated onto 6 mm plates (5×10^5 cells/plate) in EBM-2 (Cambrex, USA) supplemented with 5% FBS. Following 24 hours of incubation (37° C.; 5% CO2), cells were challenged with either PGA-OG, PGA-c(RADfk)-OG (SEQ ID NO: 24) or PGA-E-[c(RGDfk)2]-OG (SEQ ID NO:25) diluted in EGM-2 medium for 5, 10, 15, 30 or 60 minutes. Cells were then washed in PBS (×3), harvested with PBS containing 2.5 mM EDTA and analyzed with the ImageStream 100 imaging flow cytometer (Amnis). Analysis was performed using IDEAS software.

N=C(N)NCCC[C@@H]1NC(=O)[C@H](CCCCNC(=O)CC[C@H](N)C(=O)NCCCC[C@@H]2NC(=O)[C@@H](Cc3ccccc3)NC(=O)[C@H](CC(=O)O)NC(=O)CNC(=O)[C@H](CCCNC(=N)N)NC2=O)NC(=O)[C@@H](Cc2ccccc2)NC(=O)[C@H](CC(=O)O)NC(=O)CNC1=O [E-[c(RGDfk)2]]
effect on HUVEC proliferation (HUVEC [1]; FIG. 12A): only at high concentrations | inhibition of the migration of HUVEC towards VEGF (HUVEC [2]): about 30% | effect of free peptides on HUVEC adhesion (HUVEC [3]): completely abrogated HUVEC adhesion

CC(=O)O[C@H]1C(=O)[C@@]2(C)[C@H]([C@H](OC(=O)c3ccccc3)[C@]3(O)C[C@H](OC(=O)[C@H](O)[C@@H](NC(=O)c4ccccc4)c4ccccc4)C(C)=C1C3(C)C)[C@]1(OC(C)=O)CO[C@@H]1C[C@@H]2O [PTX, Paclitaxel]
IC50 (HUVEC [1]; Homo sapiens, nM PTX, FIG. 12A, read-out: IC50 of HUVEC proliferation): ~0.01 nM | IC50 (HUVEC [1]; Homo sapiens, 72 hours, bis-cyclic RGD compounds (X = 2), NA = did not reach IC50 in the concentrations used, 'a -- b' = bell-shaped curve, read-out: IC50 (nM) of PGA- PTX-E-[c(RGDfk)2] (SEQ ID NO: 18) 2.6 mol % PTX, 5 mol % RGD): 0.01 nM | IC50 (HUVEC [1]; Homo sapiens, 72 hours, bis-cyclic RGD compounds (X = 2), NA = did not reach IC50 in the concentrations used, 'a -- b' = bell-shaped curve, read-out: IC50 (nM) of PGA- PTX-E-[c(RGDfk)2] (SEQ ID NO: 18) 5 mol % PTX, 3.9 mol % RGD): 0.009 nM | IC50 (HUVEC [1]; Homo sapiens, 72 hours, experiment with monocyclic RGD compounds (X = 1), NA = did not reach IC50 in the concentrations used, 'a -- b' = bell-shaped curve, read-out: IC50 (nM) of PGA- PTX-E-c(RGDfk) (SEQ ID NO: 16) 2.1 mol % PTX, 5 mol % RGD): 0.0085 nM | IC50 ([4]; Homo sapiens, U87, 72 hours, bis-cyclic RGD compounds (X = 2), NA = did not reach IC50 in the concentrations used, 'a -- b' = bell-shaped curve, read-out: IC50 (nM) of PGA- PTX-E-[c(RGDfk)2] (SEQ ID NO: 18) 5 mol % PTX, 3.9 mol % RGD): 0.045 nM | IC50 ([4]; Homo sapiens, nM PTX, equivalent doses, FIG. 12B, read-out: IC50 of U87 proliferation): ~0.01 nM | IC50 ([5]; Mus musculus, Panc02, nM PTX, equivalent doses, FIG. 12C, read-out: IC50 of PANC02 proliferation): ~200 nM | IC50 ([5]; Mus musculus, PANC02, 72 hours, bis-cyclic RGD compounds (X = 2), NA = did not reach IC50 in the concentrations used, read-out: IC50 (nM) of PGA- PTX-E-[c(RGDfk)2] (SEQ ID NO: 18) 5 mol % PTX, 3.9 mol % RGD): 200 nM | inhibition at 0.1 µM (HUVEC [2]; Homo sapiens, HUVEC): ~55% | effect on endothelial cell adhesion (HUVEC [3]; free PTX, PGA and combinations, FIG. 15): negligent effect | inhibition at 0.01 µM (HUVEC [6]; Homo sapiens, HUVEC, read-out: inhibition of the formation of tubular structures of HUVEC): ~50%

PGA-PTX-c(RADfk) (cyclo(RAD[dF]K); not fully specified (residue 5); also: polyglutamic acid polymer conjugate, paclitaxel conjugate)
IC50 ([4]; U87, 72 hours, bis-cyclic RGD compounds (X = 2), NA = did not reach IC50 in the concentrations used, 'a -- b' = bell-shaped curve, read-out: IC50 (nM) of PGA- PTX-E-[c(RGDfk)2] (SEQ ID NO: 18) 5 mol % PTX, 3.9 mol % RGD): 65 nM | IC50 ([5]; PANC02, 72 hours, bis-cyclic RGD compounds (X = 2), NA = did not reach IC50 in the concentrations used, read-out: IC50 (nM) of PGA- PTX-E-[c(RGDfk)2] (SEQ ID NO: 18) 5 mol % PTX, 3.9 mol % RGD): 2600 nM | IC50 ([5]; nM PTX, equivalent doses, FIG. 12C, read-out: IC50 of PANC02 proliferation): ~2000 nM | inhibition of HUVEC adhesion to fibrinogen (HUVEC [3]; control compared to bis-cyclic RGD-bearing conjugates): ~20% | inhibition of HUVEC adhesion to fibrinogen (HUVEC [3]; control compared to monocyclic RGD-bearing conjugate): ~50% | inhibition of the formation of tubular structures of HUVEC (HUVEC [6]): about 40%

PGA-c(RADfk) (cyclo(RAD[dF]K); not fully specified (residue 5); also: polyglutamic acid polymer conjugate)
IC50 (HUVEC [1]; 72 hours, bis-cyclic RGD compounds (X = 2), NA = did not reach IC50 in the concentrations used, 'a -- b' = bell-shaped curve, read-out: IC50 (nM) of PGA- PTX-E-[c(RGDfk)2] (SEQ ID NO: 18) 2.6 mol % PTX, 5 mol % RGD): 5000 nM | IC50 (HUVEC [1]; 72 hours, experiment with monocyclic RGD compounds (X = 1), NA = did not reach IC50 in the concentrations used, 'a -- b' = bell-shaped curve, read-out: IC50 (nM) of PGA- PTX-E-c(RGDfk) (SEQ ID NO: 16) 2.1 mol % PTX, 5 mol % RGD): 1000 nM

PGA-c(RADfk)-OG (cyclo(RAD[dF]K); not fully specified (residue 5); also: polyglutamic acid polymer conjugate, Oregon Green label)
time at which conjugate-cell adherence was first observed (αvβ3 integrin receptor; ImageStream 100 imaging flow cytometer): 15 min | extent of binding / uptake by HUVEC (αvβ3 integrin receptor; OG fluorescence, FIGS. 11B, 11C): bound to a much lesser extent

c(RADfk): inactive cyclic peptide RAD, negative control (SEQ ID NO:40) (cyclo(RAD[dF]K); not fully specified (residue 5))
effect on HUVEC proliferation (HUVEC [1]; FIG. 12A): no effect even at those high concentrations | inhibition of the migration of HUVEC towards VEGF (HUVEC [2]): about 30% | effect of free peptides on HUVEC adhesion (HUVEC [3]): no effect

c[Arg-Gly-Asp-Phe-Lys] [E-c(RGDfk)]
effect of free peptides on HUVEC adhesion (HUVEC [3]): completely abrogated HUVEC adhesion
